For one series, the system named is SD rats. Briefly: Toxicity test of a 7-day repeatedly intragastric administration in SD rats. Conditions: SD rats, intragastric once/day, 7 days. The format is in vivo. From the text:
• Test compound 1: GDC-0077 • Test compound 2: the compounds of Example 22 and Example 62 3.2.2 Vehicle • Name: 20% aqueousSBE-β-CD (Captisol) solution 3.2.3 Animal Information • Species & strains: Sprague-Dawley (SD) rat • Animal grade: SPF grade • Number and sex of animals: 160 rats, half male and half female. 3.2.4 Instruments • The ADVIA®2120 series Hematology System with Autoslide was used for blood cell counting; • The SYSMEX CA-500 Coagulation Analyzer was used for the detection of coagulation function indicators; • The TBA-120FR Automated Biochemical Analyzer was used for the detection of blood biochemical indicators; • The Easylyte Electrolyte Analyzer was used for the detection of electrolytes; • The liquid mass spectrometry detector model API4000; • The electron spray ionization (ESI) positive ion mode and column type Agilent ZORBAX XDB-C18 (3.5 μm, 2.1×50 mm) were used for bioanalytical detection of plasma samples. 3.3 Experimental Method • 1) In the experiment, 160 rats (80 rats/sex) were divided into 20 groups according to their sex and body weight, wherein 100 rats were used for toxicology study (groups 1 to 10, 5 rats/sex/group) and 60 rats were used for toxicokinetic study (groups 11 to 20, 3 rats/sex/group); • 2) As the vehicle control group, the animals in groups 1 and 11 were intragastrically administered 20% aqueous SBE-β-CD (Captisol) solution; • 3) The animals in groups 2 and 12, groups 3 and 13, and groups 4 and 14 were intragastrically administered 10, 30 and 60 mg/kg of GDC-0077, respectively; • 4) The animals in groups 5 and 15, groups 6 and 16, and groups 7 and 17 were intragastrically administered 10, 30 and 60 mg/kg of the compound of Example 22, respectively; • 5) The animals in groups 8 and 18, groups 9 and 19, groups 10 and 20 were intragastrically administered 10, 30 and 60 mg/kg of the compound of Example 62, respectively; • 5) The animals were administered once a day for 7 consecutive days (the animals in groups 7, 17, 10 and 20 were administered for 6 consecutive days). • 6) The administration volume was 10 mL/kg. • 7) During the experiment, items such as clinical observation, body weight, food intake, clinicopathological indicators (blood cell count, coagulation function, blood biochemistry), toxicokinetics and the like were studied. • 8) All animals were euthanized on Day 8 (the animals in groups 7, 10, 17 and 20 were euthanized after administration on Day 6). • 9) During the experiment, gross anatomical observation was performed on the animals in groups 1 to 10, animals in groups 17 and 20, and dead animals (including animals in toxicological study). Histopathological examination was performed on abnormal tissues, gastrointestinal tissues (such as colon, cecum) and immune tissues (such as thymus). […]

Series [1] can be described thus: Hygroscopicity experiment. The format is physicochemical. Conditions: for crystal form (XRPD pattern) after humidification and dehumidification: 1 cycle under 0 to 95% relative humidity; for hygroscopic weight gain / hygroscopicity (in words): RH 80%. As for the experimental part: Crystal form A of mesylate salt, crystal form D of sulfate salt and crystal form A of ethanesulfonate salt of (S)-2-((2-((R)-4-(difluoromethyl)-2-oxothiazolidin-3-yl)-5,6-dihydrobenzo[f]imidazo[1,2-d][1,4]oxazepin-9-yl)amino)propionamide were placed in saturated water vapor with different relative humidity, so that the compound and water vapor reached a dynamic equilibrium, and the percentage of hygroscopic weight gain of the compound after the equilibrium was calculated.

Series [2] is described as follows: PK studies in animals of salt crystal forms, intragastric 30 mg/kg. The settings on record: 0.5% HPMC K4M suspension; for exposure in rats (in words): 30 mg/kg; for AUC(0-inf) / AUC(0-t) / Cmax / Tmax / half-life / MRT inf: rat, in vivo, po, rats, 30 mg/kg (as free compound); for MRT inf: read-out: MRT0-∞. The format is in vivo. The method, then:
7.2.1 Crystal form A of mesylate salt, crystal form D of sulfate salt and crystal form A of ethanesulfonate salt of (S)-2-((2-((R)-4-(difluoromethyl)-2-oxothiazolidin-3-yl)-5,6-dihydrobenzo[f]imidazo[1,2-d][1,4]oxazepin-9-yl)amino)propionamide were evenly suspended in an aqueous solution containing 0.5% HPMC (hydroxypropyl methylcellulose) K4M, and then intragastrically administered to rats in duplicate at a dose of 30 mg/kg. The amount of the compound was all converted into the amount of the same compound (S)-2-((2-((R)-4-(difluoromethyl)-2-oxothiazolidin-3-yl)-5,6-dihydrobenzo[f]imidazo[1,2-d][1,4]oxazepin-9-yl)amino)propionamide.

Series [3] is described as follows: Solubility experiment in different media, thermodynamic solubility at 37°C. Type of series: physicochemical. The settings on record: for solubility after salt formation compared with the free compound: 37°C; for solubility at 24 h: thermodynamic from solid, thermodynamic solubility. The method, then: About 2 mg of crystal form A of ethanesulfonate salt of (S)-2-((2-((R)-4-(difluoromethyl)-2-oxothiazolidin-3-yl)-5,6-dihydrobenzo[f]imidazo[1,2-d][1,4]oxazepin-9-yl)amino)propionamide was suspended in different media for 24 hours.

A short description of series [4]: Polymorphic screening experiment. The format is physicochemical. The settings on record: slurrying, changing solvent and crystallization mode. As for the experimental part: Organic solvents and water with a certain solubility was chosen to suspend the compound in the solvent system, and the mixture was stirred and slurried at room temperature for 1 week, and then centrifuged. The supernatant was discarded, and the solid was dried in vacuum (−0.1 Mpa) at 40° C. overnight. Then the XRPD of the solid was measured and compared with the XRPD of salt of the compound.

Series [5] can be described thus: Stability experiment of the solids (60°C, RH 95%, light), HPLC. The format is physicochemical. Conditions: light condition (5000 lx) for 10 days. The method, then:
About 2 mg of crystal form A of mesylate salt, crystal form C of sulfate salt and crystal form A of ethanesulfonate salt of (S)-2-((2-((R)-4-(difluoromethyl)-2-oxothiazolidin-3-yl)-5,6-dihydrobenzo[f]imidazo[1,2-d][1,4]oxazepin-9-yl)amino)propionamide was placed in a sealed oven at 60° C., in an unsealed container at room temperature under RH 95% (saturated aqueous KNO3 solution) and in a light box (5000 lx±500 lx) and observed for 5 days and 10 days. The content of salt was determined by HPLC using the external standard method. Changes of related substance of salt in substances related to the salts were calculated by normalization of chromatography peak area.

With `C[C@H](Nc1ccc2c(c1)OCCn1cc(N3C(=O)OC[C@H]3C(F)F)nc1-2)C(N)=O` [GDC-0077, reference compound], the lethal dose in the series with SD rats is 60 mg/kg.

The term AUC(0-inf) denotes total exposure, with the tail of the curve extrapolated. As a reminder, the AUC(0-t) is the area under the concentration-time curve up to a stated or last time point. In general, Cmax refers to the highest concentration seen after dosing. A word on the Tmax: it is the time at which the peak concentration occurs. As a reminder, the half-life is the time in which the quantity being followed falls by half. A word on the solubility: it is the dissolved amount per volume that the medium holds. High values mean much dissolved substance, low ones little dissolved substance. For the compound `CCS(=O)(=O)O.C[C@H](Nc1ccc2c(c1)OCCn1cc(N3C(=O)SC[C@H]3C(F)F)nc1-2)C(N)=O` [crystal form A of ethanesulfonate salt, (S)-2-((2-((R)-4-(difluoromethyl)-2-oxothiazolidin-3-yl)-5,6-dihydrobenzo[f]imidazo[1,2-d][1,4]oxazepin-9-yl)amino)propionamide], the “crystal form (XRPD pattern) after humidification and dehumidification” value in series [1] is on record as “the crystal form did not change”. The hygroscopic weight gain in series [1] is listed as 0.207%. Further, the “hygroscopicity (in words)” value in series [1] was “slight hygroscopicity”. In addition, the “exposure in rats (in words)” value in series [2] was “higher exposures”. Moreover, in series [2], the AUC(0-inf) turned out to be 10400 ng·h/mL. In addition, in series [2], the exposure AUC(0-t) came to 10000 ng·h/mL. Moreover, the Cmax in series [2] was determined as 1460 ng/mL. For the same compound, the Tmax in series [2] worked out at 1 h. Also, the half-life in series [2] was 3.01 h. For the same compound, the MRT inf in series [2] is 6.98 h. Further, the “solubility after salt formation compared with the free compound” value in series [3] (media of pH4 to 8 buffer) was “slightly lower solubility”; in series [3] (other media, most obviously in water), “increased the solubility”. Besides, the solubility at 24 h in series [3] (medium of pH 1, simulated gastric fluid, medium pH 1, 37° C.) was 9370 µg/mL; in series [3] (medium of pH 2, simulated gastric fluid, medium pH 2, 37° C.), 974 µg/mL; in series [3] (medium of pH 3, aqueous buffer, medium pH 3, 37° C.) it was 268 µg/mL; in series [3] (medium of pH 4, aqueous buffer, medium pH 4, 37° C.), 49 µg/mL; in series [3] (medium of pH 5, aqueous buffer, medium pH 5, 37° C.), 20 µg/mL; in series [3] (medium of pH 6, aqueous buffer, medium pH 6, 37° C.) it was 5 µg/mL. The solubility at 24 h in series [3] (medium of pH 7, aqueous buffer, medium pH 7, 37° C.) is 12 µg/mL; in series [3] (medium of pH 8, aqueous buffer, medium pH 8, 37° C.), 14 µg/mL; in series [3] (medium Fa (fasted-state simulated intestinal fluid, FaSSIF), 37° C.), 44 µg/mL; in series [3] (medium Fe (fed-state simulated intestinal fluid, FeSSIF), 37° C.), 163 µg/mL; in series [3] (medium SGF (simulated gastric fluid), 37° C.), 1150 µg/mL; in series [3] (medium water, 37° C.) it was 608 µg/mL. Further, in series [4], the “crystal form obtained in polymorphic screening” value is given as “in crystal form A was obtained”. The “increase of new impurity compared with 0 days” value (“increase of new impurity” for short) in series [5] came to 0.134%.

As to `CS(=O)(=O)O.C[C@H](Nc1ccc2c(c1)OCCn1cc(N3C(=O)SC[C@H]3C(F)F)nc1-2)C(N)=O` [crystal form A of mesylate salt, (S)-2-((2-((R)-4-(difluoromethyl)-2-oxothiazolidin-3-yl)-5,6-dihydrobenzo[f]imidazo[1,2-d][1,4]oxazepin-9-yl)amino)propionamide], in series [1], the “crystal form (XRPD pattern) after humidification and dehumidification” value is recorded as “the crystal form changed”; the hygroscopic weight gain came to 3.6%; the “hygroscopicity (in words)” value was “had hygroscopicity”. Moreover, in series [2], the “exposure in rats (in words)” value is recorded as “higher exposures”, the AUC(0-inf) was found to be 10200 ng·h/mL, the AUC(0-t) was 9840 ng·h/mL and the Cmax was found to be 1180 ng/mL. Further, in series [2], the Tmax came to 1 h, the half-life was 3.54 h and the MRT inf is 6.52 h. Moreover, the “increase of new impurity” value in series [5] is 0.523%.

With `C[C@H](Nc1ccc2c(c1)OCCn1cc(N3C(=O)SC[C@H]3C(F)F)nc1-2)C(N)=O.O=S(=O)(O)O` [crystal form C of sulfate salt, (S)-2-((2-((R)-4-(difluoromethyl)-2-oxothiazolidin-3-yl)-5,6-dihydrobenzo[f]imidazo[1,2-d][1,4]oxazepin-9-yl)amino)propionamide], the “increase of new impurity” value in series [5] stood at 0.172%.

The record behind these values is US12624050B2, “Three fused ring derivative-containing salt or crystal form and pharmaceutical composition thereof” (Shanghai Hansoh Biomedical Co., Ltd., priority 2019, dated 2026).
